Values quoted from earlier work, collected in patent US20210315915A1, “PHARMACEUTICAL COMPOSITIONS OF RIBAVIRIN” (GlaxoSmithKline Intellectual Property (No.2) Limited, priority 2015, published 2021).

Key:
[1] = crystalline white powder
[2] = FDA approved labeling of Rebetol

solubility in ethanol (96%) [1]: slightly soluble | solubility in water [1]: freely soluble | multiple-dose half-life [2]: 12 days | persistence in nonplasma compartments [2]: ≤ 6 months
SMILES: NC(=O)c1ncn([C@@H]2O[C@H](CO)[C@@H](O)[C@H]2O)n1 [ribavirin, 1-β-D-ribofuranosyl-1H-1,2,4-triazole-3-carboxamide]
